Measurements published in patent US4459290A, “C-23-Modified derivatives of OMT, pharmaceutical compositions and method of use” (priority 1982, dated 1984).

Legend:
Type in all cases: cell-based
[1] = test system: Streptococcus pneumoniae Park I; assay: microbe, parasite or virus in culture; settings: Streptococcus pneumoniae; S. pneumoniae Park I; agar dilution; read-out: MIC
Method: (§1) Especially noteworthy is the improved activity against gram-negative bacteria for several derivatives when compared to the activity of OMT. […] The MIC's in Tables V and VI were determined by standard agar-dilution assays. The MIC's in Table VII were obtained using a conventional broth-dilution microtiter test.

these strains = assay: Activity against the strains of Table VI, agar-dilution; settings: at the levels tested
Method: as §1

[2] = test system: Pasteurella multocida 22A; assay: MIC, broth-dilution microtiter test (Table VII); settings: Pasteurella multocida, 22A
Method: as §1

Streptococcus sp. 80 = assay: MIC, broth-dilution microtiter test (Table VII); settings: Streptococcus sp. 80; broth-dilution microtiter; read-out: MIC
Method: as §1

[3] = test system: Pasteurella hemolytica 23C; assay: MIC, broth-dilution microtiter test (Table VII); settings: Pasteurella, P. hemolytica 23C, read-out: MIC
Method: as §1

[4] = test system: Pasteurella multocida 68C; assay: MIC, broth-dilution microtiter test (Table VII); settings: Pasteurella multocida, 68C
Method: as §1

Staphylococcus aureus = assay: MIC, broth-dilution microtiter test (Table VII); settings: Staphylococcus aureus
Method: as §1

Mycoplasma hyorhinis = assay: MIC, broth-dilution microtiter test (Table VII)
Method: as §1

Mycoplasma gallisepticum = assay: MIC, broth-dilution microtiter test (Table VII); settings: Mycoplasmoides gallisepticum; M. gallisepticum; broth-dilution microtiter; read-out: MIC
Method: as §1

[5] = test system: Pasteurella hemolytica 22C; assay: MIC, broth-dilution microtiter test (Table VII); settings: Pasteurella, P. hemolytica 22C, read-out: MIC
Method: as §1

[6] = test system: Pasteurella multocida 17E; assay: MIC, broth-dilution microtiter test (Table VII); settings: Pasteurella multocida, 17E
Method: as §1

[7] = test system: Pasteurella multocida 60A; assay: MIC, broth-dilution microtiter test (Table VII); settings: Pasteurella multocida, 60A
Method: as §1

Mycoplasma synoviae = assay: MIC, broth-dilution microtiter test (Table VII); settings: Mycoplasmopsis synoviae
Method: as §1

[8] = test system: Pasteurella multocida 40G; assay: MIC, broth-dilution microtiter test (Table VII); settings: Pasteurella multocida, 40G
Method: as §1

[9] = test system: Pasteurella hemolytica 41D; assay: MIC, broth-dilution microtiter test (Table VII); settings: Pasteurella, P. hemolytica 41D, read-out: MIC
Method: as §1

[10] = test system: Streptococcus pyogenes C203; assay: MIC, standard agar-dilution assay (Table V); settings: Streptococcus pyogenes; S. pyogenes C203; agar dilution; read-out: MIC
Method: (§2) The MIC's in Tables V and VI were determined by standard agar-dilution assays. The MIC's in Table VII were obtained using a conventional broth-dilution microtiter test.

Escherichia coli TEM = assay: MIC, standard agar-dilution assay (Table V); settings: Escherichia coli; E. coli TEM; agar dilution; read-out: MIC
Method: as §2

Shigella sonnei N9 = assay: MIC, standard agar-dilution assay (Table V)
Method: as §1

[11] = test system: Staphylococcus aureus X400; assay: MIC, standard agar-dilution assay (Table V); settings: Staphylococcus aureus; S. aureus X400, methicillin-resistant strain; agar dilution; read-out: MIC
Method: as §1

[12] = test system: Staphylococcus epidermidis EPI1; assay: MIC, standard agar-dilution assay (Table V); settings: Staphylococcus epidermidis; S. epidermidis EPI1; agar dilution; read-out: MIC
Method: as §1

Escherichia coli N10 = assay: MIC, standard agar-dilution assay (Table V); settings: Escherichia coli; E. coli N10; agar dilution; read-out: MIC
Method: as §1

[13] = test system: Staphylococcus epidermidis EPI2; assay: MIC, standard agar-dilution assay (Table V); settings: Staphylococcus epidermidis; S. epidermidis EPI2; agar dilution; read-out: MIC
Method: as §1

[14] = test system: Staphylococcus aureus V41; assay: MIC, standard agar-dilution assay (Table V); settings: Staphylococcus aureus; S. aureus V41, penicillin-resistant strain; agar dilution; read-out: MIC
Method: as §1

[15] = test system: Klebsiella pneumoniae KAE; assay: MIC, standard agar-dilution assay (Table V); settings: Klebsiella pneumoniae; K. pneumoniae KAE; agar dilution; read-out: MIC
Method: as §1

[16] = test system: Staphylococcus aureus X1.1; assay: MIC, standard agar-dilution assay (Table V); settings: Staphylococcus aureus, X1.1
Method: as §1

Streptococcus Group 9960 = assay: MIC, standard agar-dilution assay (Table V); settings: GROUP9960
Method: as §1

[17] = test system: Klebsiella pneumoniae X26; assay: MIC, standard agar-dilution assay (Table V); settings: Klebsiella pneumoniae, X26
Method: as §1

[18] = test system: Streptococcus Group D X66; assay: MIC, standard agar-dilution assay (Table V)
Method: as §1

[19] = test system: Staphylococcus aureus S13E; assay: MIC, standard agar-dilution assay (Table V); settings: Staphylococcus aureus, S13E
Method: as §1

Escherichia coli EC14 = assay: MIC, standard agar-dilution assay (Table V); settings: Escherichia coli; E. coli EC14; agar dilution; read-out: MIC
Method: as §1

Q: How did the MIC [1] turn out when `CCC1OC(=O)CC(O)C(C)C(OC2OC(C)C(O)C(N(C)C)C2OC(C)=O)C(CC=O)CC(C)C(=O)C=CC(C)=CC1C[n+]1ccccc1` (stereo not drawn) [Compound 1, 2'-O-Acetyl-23-deoxy-23-pyridinium-OMT Trifluoro methanesulfonate] was run?
A: 8 µg/mL

Q: What about the “activity against these strains” value (these strains) of the same molecule?
A: did not show activity

Q: What about the MIC [2] of the same molecule?
A: > 50 µg/mL

Q: And the MIC (Streptococcus sp. 80)?
A: 12.5 µg/mL

Q: What about the MIC [3] of the same molecule?
A: > 50 µg/mL

Q: What about the MIC [4] of the same molecule?
A: > 50 µg/mL

Q: And the MIC (Staphylococcus aureus)?
A: 50 µg/mL

Q: And the MIC (Mycoplasma hyorhinis)?
A: 50 µg/mL

Q: What about the MIC (Mycoplasma gallisepticum) of the same molecule?
A: 25 µg/mL

Q: What about the MIC [5] of the same molecule?
A: > 50 µg/mL

Q: What about the MIC [6] of the same molecule?
A: > 50 µg/mL

Q: What about the MIC [7] of the same molecule?
A: > 50 µg/mL

Q: And the MIC (Mycoplasma synoviae)?
A: 12.5 µg/mL

Q: And the MIC [8]?
A: > 50 µg/mL

Q: What about the MIC [9] of the same molecule?
A: > 50 µg/mL

Q: What about the MIC [10] of the same molecule?
A: 32 µg/mL

Q: What about the MIC (Escherichia coli TEM) of the same molecule?
A: > 128 µg/mL

Q: What about the MIC (Shigella sonnei N9) of the same molecule?
A: > 128 µg/mL

Q: And the MIC [11]?
A: 64 µg/mL

Q: And the MIC [12]?
A: 32 µg/mL

Q: And the MIC (Escherichia coli N10)?
A: > 128 µg/mL

Q: And the MIC [13]?
A: 64 µg/mL

Q: And the MIC [14]?
A: 64 µg/mL

Q: What about the MIC [15] of the same molecule?
A: > 128 µg/mL

Q: And the MIC [16]?
A: 32 µg/mL

Q: And the MIC (Streptococcus Group 9960)?
A: 64 µg/mL

Q: And the MIC [17]?
A: 64 µg/mL

Q: And the MIC [18]?
A: 64 µg/mL

Q: And the MIC [19]?
A: 32 µg/mL

Q: What about the MIC (Escherichia coli EC14) of the same molecule?
A: > 128 µg/mL
